The test system of one test is H/R-induced H9c2 cells. The experiment in a line: Impact of survival pathway inhibitors on AP1-induced cardio-protection (MVS assay). Conditions: with 200 μg/mL AP1; mifepristone 100 μM, tamoxifen 100 μM, L-NAME 10 μM, LY294002 40 μM, Akt inhibitor IV 10 μM, U0126 40 μM (FIG. 11).
For test [1], the system named is H9c2 cells. Kind of test: Flow cytometric analysis of cardiomyocyte apoptosis (Annexin V/PI). Conditions: 100 μM, H/R, H/R group 46.0%. In kind it is cell-based, rat. From the text: The normal group (Normal) was always maintained in normoxic condition. The cells were then stained with Annexin V-FITC and PI for apoptosis analysis by flow cytometry. Cells in the lower-left quadrant (Q3), unstained for both Annexin V-FITC and PI, are defined as viable cells. Cells in the lower-right quadrant (Q4), stained for Annexin V-FITC but negative for PI, are defined as early-medium apoptotic cells. Cells in the upper-right quadrant (Q2), positive for both Annexin V-FITC and PI, are defined as late apoptotic and necrotic populations. […] The percentage of apoptotic cells measured using the Annexin-V/PI kit for flow cytometry as manufacturer's instruction. […] Cells were re-suspended in 1× binding buffer containing propidium iodide (PI) and FITC-labelled Annexin V and incubated for 15 min at 37° C. in the dark, and analyzed with flow cytometry (FACS Vantage-BD Sciences, USA). The data was analyzed using Flow J software for determining the percent of apoptotic cells.

The subject of test [2] is H9c2 cells. Kind of test: Cell morphology in the H/R model. Conditions: 100 μM, pretreatment, H/R (FIG. 8E). The test is classed as cell-based, rat. From the text: FIG. 8A through 8E show the cell morphology of H9c2 cell pretreated with the carbohydrate composition AP1 in the H/R model. […] All photos (magnification power 200×) were taken after reoxygenation.
The medium was changed every two days, and the confluent cells were passaged by trypsinization weekly. The cells passaged for three to four times were used for experiments described as below.

The test system of test [3] is NO in culture medium of H9c2 cells. The experiment in a line: Nitric oxide (NO) production, Griess reaction. In kind it is cell-based, rat. Conditions: L-NAME 10 μmol/L, H/R (FIG. 12). How it is done: FIG. 12 illustrates the effect of carbohydrate composition AP1 on NO production. […] The normal group (Normal) was always maintained in normoxic condition. The changes of NO levels in culture medium of H9c2 cells following H/R injury were determined by Griess reagent.
The concentration of NO in the culture medium was determined by the Griess reaction with minor changes (Chen, X. P. et al., Journal of Neuroinflammation 9, 2012). At the end of the cell culture, 40 μL cell culture fluid, 10 μL NADPH, and 40 μL basal solution (0.03 M PBS; 1.25 mM glucose-6-phosphate; 400 U/L glucose-6-phosphate dehydrogenase; 200 U/L nitrate reeducates) was incubated in a 96 well microtiter plate for 45 min at room temperature. Next, 50 μL Griess reagent was added and the solution incubated for 20 min in the dark at room temperature. Finally, the absorbance of the samples was measured at 540 nm. Concentrations of NO in the sample were calibrated with a reference standard of sodium nitrite (NaNO2) supplied with the kit and the levels of NO were expressed as μM.

Experimental for H/R-induced H9c2 cells: H9c2 cells were pre-cultured in the presence or absence of survival pathway inhibitors, including mifepristone (MP, 100 μM), tamoxifen (TX, 100 μM), L-NAME (LM, 10 μmol/L), LY294002 (LY, 40 μM), Akt inhibitor IV (IV, 10 μM), U0126 (40 μM) with or without 200 μg/mL AP1 for 1 h, and then exposed further to H/R injury. The normal group (NOR) was always maintained in normoxic condition. Cell death was assessed by MVS assay. All measurements were repeated in six wells, the results are the average of three independent experiments. All values are expressed as mean±SD. ^^^P<0.001 vs. NOR, ***P<0.001 vs. H/R, ^##P<0.01 vs. AP1 under H/R, ^###P<0.001 vs. AP1 under H/R.
To examine the effectiveness of RSE and AP1 on H9c2 cells under hypoxia/reoxygenation conditions, the cells were cultured under normoxic conditions (95% air/5% CO2) overnight; then the cells were washed twice with Krebs-Ringer Bicarbonate buffer (composition in mM: NaCl 115, KCl 4.7, CaCl2 2.5, KH2PO4 1.2, MgSO4 1.2, NaHCO3 24, HEPES 10; pH 7.4) balanced with N2 at 4° C. for overnight. Aliquots (100 μL) of KRB supplemented with 0.01% (w/v) BSA were added to the cells immediately prior to hypoxia. To create a hypoxia condition, a hypoxic chamber (Stem Cell Technologies, USA) was used to produce an in vitro hypoxia challenge (Chiu, P. Y. et al., Molecular and cellular biochemistry 350, 237-250, 2011). In essence, the cells were placed in the sealed chamber and the chamber was flushed with pure N2 for 5 min at a flow rate of 20 mL/min, then, all sealable connectors were closed. After that, the chamber was transferred to an incubator and the cells in the chamber were subjected to 3 h incubation at 37° C. to induced hypoxia. Reoxygenation was initiated by opening the chamber and then replacing the KRB with fresh DMEM medium, the cells were then cultured in an incubator under normoxic conditions (95% air/5% CO2) at 37° C. for another 4 h.
The cells were seeded at the density of 8×10^4 cells/well in a 96-well plate. […] The control normal group was always maintained in normal DMEM and put in the incubator under normoxic atmosphere (95% air/5% CO2). For pharmaceutical blockages, the cells were treated with mifepristone (an inhibitor of GR, 100 μM), tamoxifen (an inhibitor of ER, 100 μM), L-NAME (an inhibitor of NOS, 10 μM), LY294002 (an inhibitor of PI3K, 40 μM), Akt inhibitor IV (an inhibitor of Akt protein kinase, 10 μM), U0126 (an inhibitor of Erk1/2, 40 μM) right before the pretreatment of AP1 (200 μg/mL).
The cell viability was evaluated by MVS assay (Sathishkumar, K. et al., Free Radicals and Antioxidant Protocols, 51-61, 2010). Briefly, at the end of the cell culture, the cells were overlaid with 100 μL of 2×mitochondrial viability stain in each well containing 100 μL of medium and then incubated under normoxic condition (95% air/5% CO2) for 4 h in the dark. The fluorescent intensity was measured at excitation 550 nm and emission 590 nm by a TECAN Infinite M200 micro plate reader (Tecan, Durham, USA).

On to `N#CC(=C(/N)Sc1ccccc1N)/C(C#N)=C(\N)Sc1ccccc1N` [U0126], for which the “effect of inhibitor on protective effects of AP1 on H/R-induced cell death” value (“effect of inhibitor” below) in the test with H/R-induced H9c2 cells is “abolished the protective effects of AP1”.

On to `CC1=NS(=O)(=O)c2cc(Cl)ccc2N1` [DZ, diazoxide], for which, in the test on H9c2 cells [1], the “apoptosis (apoptotic cell accumulation)” value was determined as 22.2±3.8%. Further, the “protection in H/R induced cell death” value in the test on H9c2 cells [2] is on record as “significant protection”. Regarding `COC(=O)[C@@H](N)CCCNC(=N)N[N+](=O)[O-]` [L-NAME], the NO production entry in test [3] is listed as “significantly abolished”. For the same compound, the “effect of inhibitor” value with H/R-induced H9c2 cells is “abolished the protective effects of AP1”.

Turning to `CC[n+]1c(/C=C/N(C)c2ccccc2)n(-c2ccccc2)c2ccc(-c3nc4ccccc4s3)cc21.[I-]` [Akt inhibitor IV], the “effect of inhibitor” value in the test on H/R-induced H9c2 cells was “abolished the protective effects of AP1”.

Regarding `CC#C[C@]1(O)CC[C@H]2[C@@H]3CCC4=CC(=O)CCC4=C3[C@@H](c3ccc(N(C)C)cc3)C[C@@]21C` [mifepristone], the “effect of inhibitor” value with H/R-induced H9c2 cells is listed as “abolished the protective effects of AP1”.

Consider `CC/C(=C(\c1ccccc1)c1ccc(OCCN(C)C)cc1)c1ccccc1` [tamoxifen], for which the “effect of inhibitor” value in the test with H/R-induced H9c2 cells is recorded as “abolished the protective effects of AP1”.

(Values after patent publication US10220064B2, “Carbohydrate composition extracted from Panax ginseng and its use in the treatment of ischemic conditions” (Macau University of Science and Technology, priority 2016, dated 2019).)
